Where two headings read alike, the source gives them in different places.
Molecular target: α-glucosidase (Saccharomyces cerevisiae, UniProt P53341)
Experiment: α-Glucosidase inhibitory assay (pNPG substrate, absorbance at 405 nm)
Assay type: biochemical
Details: for inhibition at 50 µM: read-out: Inhibition Rate (in vitro α-glucosidase inhibitory activity); for α-glucosidase inhibitory activity, in words: qualitative statement, tested at 50 μM
Method: The α-glucosidase inhibitory activity was evaluated according to a previous method. In brief, α-glucosidase solution (0.025 U/mL, dissolved in 0.1 M phosphate-buffered saline (PBS) solution with a pH of 6.8), was mixed with 50 μM inhibitor and incubated at 37 °C for 10 min. pNPG solution (1 μM, dissolved in 0.1 M PBS solution) was added to the mixed solution and incubated at 37 °C for 40 min. Sodium carbonate (1 M) solution was added to terminate the reaction. […] The absorbance was recorded at 405 nm usin a microplate reader. The α-glucosidase inhibitory rate was calculated as follows:
Inhibitory rate% = [(A0 − A1)/A0)] × 100%, where:
A0 and A1 represent the absorbance of the blank group (containing enzyme, pNPG, PBS buffer, and DMSO), the sample group (containing enzyme, pNPG, PBS buffer, and samples), respectively. IC50 values were computed based on the Reed–Muench method.
All data were analyzed and presented as mean values ± SD from three independent assays (n = 3). The IC50 values were determined by Graph Pad Prism version 5 (University of California, San Diego, CA, USA).

[1] = at a concentration of 50 μM, means ± SD (n = 3)

Sequence of α-glucosidase (P53341 whole entry): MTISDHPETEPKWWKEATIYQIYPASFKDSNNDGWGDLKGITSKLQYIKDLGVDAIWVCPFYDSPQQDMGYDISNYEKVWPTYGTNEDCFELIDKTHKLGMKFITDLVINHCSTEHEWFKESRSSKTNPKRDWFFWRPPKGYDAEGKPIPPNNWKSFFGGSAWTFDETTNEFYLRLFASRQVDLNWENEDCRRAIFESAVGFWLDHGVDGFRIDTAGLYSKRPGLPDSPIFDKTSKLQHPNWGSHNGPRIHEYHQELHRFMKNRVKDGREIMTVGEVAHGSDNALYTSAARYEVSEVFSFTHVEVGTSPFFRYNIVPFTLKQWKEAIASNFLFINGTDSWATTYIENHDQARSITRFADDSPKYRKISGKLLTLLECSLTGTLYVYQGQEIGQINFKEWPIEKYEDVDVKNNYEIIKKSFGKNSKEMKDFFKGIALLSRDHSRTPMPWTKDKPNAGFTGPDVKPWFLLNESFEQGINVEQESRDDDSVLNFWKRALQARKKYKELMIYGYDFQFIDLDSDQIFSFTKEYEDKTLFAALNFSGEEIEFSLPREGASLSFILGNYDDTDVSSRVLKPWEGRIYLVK

Row | inhibition at 50 µM [1] | α-glucosidase inhibitory activity, in words | Compound | inhibition at 50 µM
1 | 98.7 ± 0.2% |  | CCCC/C=C\CCCCCCCCCCCc1cc2cc(O)ccc2o1 [Compound 8, choerosponol A] | 
2 | 43.8 ± 1.3% | comparable α-glucosidase inhibitory | O=C1c2c(O)cc(O)cc2O[C@H](c2ccc(O)cc2)[C@H]1O [Compound 11, dihydrokaempferol] | 
3 | 66.6 ± 0.92% |  | O=C1C[C@@H](c2ccc(O)c(O)c2)Oc2cc(O)cc(O)c21 [Compound 12, eriodictyol] | 
4 | 16.6 ± 0.57% | weak inhibitory activity | COc1cc([C@H]2c3cc(O)c(OC)cc3C[C@@H](CO)[C@@H]2CO)ccc1O [Compound 15, (+)-isolariciresinol] | 
5 | 7.5 ± 1.4% | weak inhibitory activity | COc1cc([C@@H]2c3c(cc(OC)c(O)c3OC)C[C@H](CO)[C@H]2CO)cc(OC)c1O [Compound 16, (−)-lyoniresinol] | 
6 | 37.6 ± 0.12% | weak inhibitory activity | COc1cc(C[C@@H](CO)[C@H](CO)Cc2ccc(O)c(OC)c2)ccc1O [Compound 17, (−)-secoisolariciresinol] | 
7 | 4.8 ± 0.38% | weak inhibitory activity | COc1cc(C2OCC3C(c4cc(OC)c(O)c(OC)c4)OCC23)cc(OC)c1O (centres unmarked) [Compound 18, lirioresinol] | 

Second part, the compound before the results:

Row | Compound | inhibition at 50 µM [1] | α-glucosidase inhibitory activity, in words | inhibition at 50 µM
8 | CCCCC=CCCCCCCCCCC1(O)CC(O)CCC1O [Compound 1, (1S,2R,4S)-2-[10′(Z)-pentadecenyl]-cyclohexane-1,2,4-triol] | -8.1 ± 2.4% |  | 
9 | CCCCC=CCCCCCCCCCCCC1(O)CC(O)C=CC1O [Compound 2, (1S,2R,4S)-2-[12′(Z)-heptadecenyl]-cyclohex-5-en-1,2,4-triol] | -12.4 ± 0.66% |  | 
10 | CCCCC=CCCCCCCCCCCCCCC1(O)CC(O)C=CC1O [Compound 3, (1S,2R,4S)-2-[14′(Z)-nonadecenyl]-cyclohex-5-en-1,2,4-triol] | -13.6 ± 1.7% |  | 
11 | CCCCC=CCCCCCCCCCC(O)CC1=CC(=O)CCC1O [Compound 4, (4R,2′R)-dihydroxy-3-[12′(Z)-heptadecenyl]-2-cyclohexenone] | 11.1 ± 1.1% |  | 
12 | CCCCC=CCCCCCCCCCC(O)CC1=CC(=O)CC(O)C1O [Compound 5, (4S,5S,2′R)-trihydroxy-3-[12′(Z)-heptadecenyl]-2-cyclohexenone] | -11.2 ± 0.94% |  | 
13 | CCCC/C=C\CCCCCCCCCc1cc2cc(O)ccc2o1 [Compound 6, 2-[10′(Z)-pentadecenyl]-benzofuran-5-ol] | 97.7 ± 0.19% |  | 
14 | CCCC/C=C\CCCCCCCc1cc2cc(O)ccc2o1 [Compound 7, 2-[8′(Z)-tridecenyl]-benzofuran-5-ol] | 96.7 ± 0.51% |  | 
15 | Oc1cc(O)c2c(c1)O[C@H](c1ccc(O)c(O)c1)[C@@H](O)C2 [Compound 9, catechin] | 61.1 ± 1.6% | notable α-glucosidase inhibition | 
16 | O=C1c2c(O)cc(O)cc2O[C@H](c2ccc(O)c(O)c2)[C@H]1O [Compound 10, dihydroquercetin] |  | comparable α-glucosidase inhibitory | 36.4 ± 0.72%
17 | O=C1C[C@@H](c2ccc(O)cc2)Oc2cc(O)cc(O)c21 [Compound 13, naringenin] |  |  | 65.1 ± 2%
18 | C[C@@H]1O[C@@H](Oc2c(-c3ccc(O)c(O)c3)oc3cc(O)cc(O)c3c2=O)[C@H](O)[C@H](O)[C@H]1O [Compound 14, quercetin-3-O-α-L-rhamnoside] |  | comparable α-glucosidase inhibitory | 26.2 ± 1.3%

Reference: PMC11119685, “Undescribed Cyclohexene and Benzofuran Alkenyl Derivatives from Choerospondias axillaris, a Potential Hypoglycemic Fruit” (Foods, 2024)
